From ChEMBL document CHEMBL4507278 (2021) come the findings set out here.

Each structure is given as a SMILES string.

Series [1] addresses 5-hydroxytryptamine receptor 6 (Homo sapiens) (UniProt P50406). The following applies: Compound concentration 10.0 uM.
The target of series [2] is Alpha-1B adrenergic receptor (Homo sapiens) (UniProt P35368). To be noted: Compound concentration 10.0 uM.
Series [3] concerns the target Muscarinic acetylcholine receptor M2 (Homo sapiens) (UniProt P08172). To be noted: Compound concentration 10.0 uM.
Series [4] has as its target Leukocyte tyrosine kinase receptor (Homo sapiens) (UniProt P29376). To be noted: Compound concentration 1000.0 nM.
The target of series [5] is Mitogen-activated protein kinase kinase kinase 3 (Homo sapiens) (UniProt Q99759). To be noted: Compound concentration 1000.0 nM.
Series [6] addresses RAC-beta serine/threonine-protein kinase (Homo sapiens) (UniProt P31751). To be noted: Compound concentration 1000.0 nM.
Series [7] concerns the target Melatonin receptor type 1A (Homo sapiens) (UniProt P48039). Kind of series: MT1/H Eurofins-Panlabs selectivity data (BI). The following applies: Compound concentration 10.0 uM.
Series [8] addresses Alpha-1A adrenergic receptor (Rattus norvegicus) (UniProt P43140). Kind of series: ALPHA1A/R Eurofins-Panlabs selectivity data (BI). To be noted: Compound concentration 10.0 uM.
The target in series [9] is Muscarinic acetylcholine receptor M2 (Homo sapiens) (UniProt P08172). Put plainly: M2/HU Eurofins-Panlabs selectivity data (BI). The following applies: Compound concentration 10.0 uM.
The target in series [10] is Adenosine receptor A1 (Homo sapiens) (UniProt P30542). Put plainly: A1/HU Eurofins-Panlabs selectivity data (BI). To be noted: Compound concentration 10.0 uM.
Series [11] deals with Alpha-1B adrenergic receptor (Rattus norvegicus) (UniProt P15823). Put plainly: ALPHA1B/R Eurofins-Panlabs selectivity data (BI). The following applies: Compound concentration 10.0 uM.
Series [12] has as its target Substance-P receptor (Homo sapiens) (UniProt P25103). Kind of series: NK1/HU Eurofins-Panlabs selectivity data (BI). The following applies: Compound concentration 10.0 uM.
Series [13] deals with Mu-type opioid receptor (Homo sapiens) (UniProt P35372). Kind of series: MU/HU Eurofins-Panlabs selectivity data (BI). To be noted: Compound concentration 10.0 uM.
Series [14] addresses Muscarinic acetylcholine receptor M3 (Homo sapiens) (UniProt P20309). The following applies: Compound concentration 10.0 uM.
The target in series [15] is Acetylcholine receptor subunit alpha (Homo sapiens) (UniProt P02708). Kind of series: NACH/H Eurofins-Panlabs selectivity data (BI). To be noted: Compound concentration 10.0 uM.
Series [16] addresses Cysteinyl leukotriene receptor 1 (Homo sapiens) (UniProt Q9Y271). Kind of series: CYSLT1_HS Eurofins-Panlabs selectivity data (BI). To be noted: Compound concentration 10.0 uM.
Series [17] has as its target B1 bradykinin receptor (Homo sapiens) (UniProt P46663). Kind of series: B1/H Eurofins-Panlabs selectivity data (BI). To be noted: Compound concentration 10.0 uM.
Series [18] concerns the target Sodium-dependent dopamine transporter (Homo sapiens) (UniProt Q01959). Put plainly: DATRANS/H Eurofins-Panlabs selectivity data (BI). To be noted: Compound concentration 10.0 uM.
In series [19] the target is Neuropeptide Y receptor type 2 (Homo sapiens) (UniProt P49146). Kind of series: Y2/HU Eurofins-Panlabs selectivity data (BI). To be noted: Compound concentration 10.0 uM.
Series [20] concerns the target Interleukin-1 receptor type 1 (Mus musculus) (UniProt P13504). Kind of series: IL-1 Eurofins-Panlabs selectivity data (BI). To be noted: Compound concentration 10.0 uM.
For series [21], the target named is Nicotinic acetylcholine receptor alpha-1/beta-1 (Homo sapiens) (UniProt P02708+P11230). Kind of series: NACH_BS_N/H Eurofins-Panlabs selectivity data (BI). The series is classed as protein-complex assay. To be noted: Compound concentration 10.0 uM.
The target of series [22] is T1, C-C chemokine receptor type 1 (Homo sapiens) (UniProt P32246).
T1 sequence (whole entry): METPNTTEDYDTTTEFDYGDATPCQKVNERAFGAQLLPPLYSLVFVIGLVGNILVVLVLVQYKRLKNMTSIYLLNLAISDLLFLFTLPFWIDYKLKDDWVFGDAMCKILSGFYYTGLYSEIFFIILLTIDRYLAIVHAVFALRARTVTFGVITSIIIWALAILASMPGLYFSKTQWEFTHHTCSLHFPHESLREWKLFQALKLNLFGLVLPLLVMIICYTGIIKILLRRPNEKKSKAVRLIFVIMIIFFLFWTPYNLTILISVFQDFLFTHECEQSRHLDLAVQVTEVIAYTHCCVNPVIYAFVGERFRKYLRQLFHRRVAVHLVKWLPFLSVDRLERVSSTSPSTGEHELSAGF
Put plainly: CCR1 Eurofins-Panlabs selectivity data (BI).

The target in series [23] is Beta-1 adrenergic receptor (Homo sapiens, UniProt P08588). Kind of series: GPCRScan assay: inhibition of Beta1. Also noted: radioligand conc. used [nm] 0.1 – 0.2, parental cells CHO Flp-In.
For series [24], the target named is Protein kinase C alpha type (Mus musculus) (UniProt P20444). Put plainly: PHORBOLE/M Eurofins-Panlabs selectivity data (BI). The following applies: Compound concentration 10.0 uM.
Series [25] addresses Platelet-activating factor receptor (Homo sapiens) (UniProt P25105). Kind of series: PAF/H Eurofins-Panlabs selectivity data (BI). The following applies: Compound concentration 10.0 uM.
Series [26] addresses Androgen receptor (Rattus norvegicus) (UniProt P15207). Put plainly: TESTOST/RA Eurofins-Panlabs selectivity data (BI). To be noted: Compound concentration 10.0 uM.
Series [27] deals with D(1A) dopamine receptor (Homo sapiens) (UniProt P21728). Put plainly: D1/HU Eurofins-Panlabs selectivity data (BI). The following applies: Compound concentration 10.0 uM.
Series [28] has as its target Voltage-dependent N-type calcium channel subunit alpha-1B (Rattus norvegicus) (UniProt Q02294). Kind of series: CA+/N/RA Eurofins-Panlabs selectivity data (BI). To be noted: Compound concentration 10.0 uM.
Series [29] concerns the target Histamine H2 receptor (Homo sapiens) (UniProt P25021). Put plainly: H2/H Eurofins-Panlabs selectivity data (BI). To be noted: Compound concentration 10.0 uM.
For series [30], the target named is Voltage-dependent L-type calcium channel subunit alpha-1C (diltiazem site) (Rattus norvegicus, UniProt P22002). Kind of series: CA+/DILSI/RA Eurofins-Panlabs selectivity data (BI). The following applies: compound concentration 10 uM, read-out: % Ctrl.
In series [31] the target is Sodium channel regulatory subunit beta-1 (Rattus norvegicus) (UniProt Q00954). Kind of series: NA+/SITE2/RA Eurofins-Panlabs selectivity data (BI). To be noted: Compound concentration 10.0 uM.
Series [32] has as its target Glutamate receptor ionotropic, NMDA 2A (Rattus norvegicus) (UniProt Q00959). Put plainly: NMDAPHSI/R Eurofins-Panlabs selectivity data (BI). The following applies: Compound concentration 10.0 uM.
In series [33] the target is T2, Alpha-2A adrenergic receptor (Homo sapiens) (UniProt P08913).
T2 sequence (whole entry): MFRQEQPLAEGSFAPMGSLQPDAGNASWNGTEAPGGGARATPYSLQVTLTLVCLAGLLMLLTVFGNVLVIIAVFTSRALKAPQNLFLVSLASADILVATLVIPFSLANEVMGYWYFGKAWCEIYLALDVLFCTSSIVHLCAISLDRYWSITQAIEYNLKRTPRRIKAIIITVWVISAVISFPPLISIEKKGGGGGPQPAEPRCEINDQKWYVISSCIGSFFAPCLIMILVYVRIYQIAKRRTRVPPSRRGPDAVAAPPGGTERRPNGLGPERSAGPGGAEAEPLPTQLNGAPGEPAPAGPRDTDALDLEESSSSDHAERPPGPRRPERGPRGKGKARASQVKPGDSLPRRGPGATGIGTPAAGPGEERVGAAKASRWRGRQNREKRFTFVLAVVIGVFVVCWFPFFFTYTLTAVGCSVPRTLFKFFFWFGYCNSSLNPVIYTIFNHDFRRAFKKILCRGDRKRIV
Kind of series: ALPHA2A/H Eurofins-Panlabs selectivity data (BI). The following applies: Compound concentration 10.0 uM.

Muscarinic acetylcholine receptor M2 (Homo sapiens), sequence (P08172 whole entry): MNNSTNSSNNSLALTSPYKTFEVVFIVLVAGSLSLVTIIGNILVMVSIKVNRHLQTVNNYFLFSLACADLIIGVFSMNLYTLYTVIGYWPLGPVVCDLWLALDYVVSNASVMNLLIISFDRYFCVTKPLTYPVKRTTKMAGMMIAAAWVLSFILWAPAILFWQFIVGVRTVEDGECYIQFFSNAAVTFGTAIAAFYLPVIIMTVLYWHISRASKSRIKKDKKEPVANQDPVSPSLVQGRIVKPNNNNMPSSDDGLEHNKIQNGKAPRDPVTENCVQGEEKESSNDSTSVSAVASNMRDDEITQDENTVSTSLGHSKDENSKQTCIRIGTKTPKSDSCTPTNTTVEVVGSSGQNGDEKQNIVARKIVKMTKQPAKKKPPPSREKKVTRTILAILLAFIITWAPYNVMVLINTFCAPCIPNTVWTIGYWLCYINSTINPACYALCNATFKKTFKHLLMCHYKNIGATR
RAC-beta serine/threonine-protein kinase (Homo sapiens), sequence (P31751 whole entry): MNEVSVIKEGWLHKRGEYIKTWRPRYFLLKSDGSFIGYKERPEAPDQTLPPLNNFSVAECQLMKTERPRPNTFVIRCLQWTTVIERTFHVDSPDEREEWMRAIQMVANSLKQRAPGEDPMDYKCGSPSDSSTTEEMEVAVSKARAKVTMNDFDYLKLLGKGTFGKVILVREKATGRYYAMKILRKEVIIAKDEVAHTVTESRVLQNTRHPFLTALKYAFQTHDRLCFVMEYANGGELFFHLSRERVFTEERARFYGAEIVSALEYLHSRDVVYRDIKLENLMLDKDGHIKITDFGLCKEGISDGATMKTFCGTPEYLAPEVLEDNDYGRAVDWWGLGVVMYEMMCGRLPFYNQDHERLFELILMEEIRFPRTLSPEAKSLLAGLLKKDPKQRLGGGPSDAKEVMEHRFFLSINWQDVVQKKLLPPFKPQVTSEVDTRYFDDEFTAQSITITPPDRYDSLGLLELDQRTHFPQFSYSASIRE
Leukocyte tyrosine kinase receptor (Homo sapiens), sequence (P29376 whole entry): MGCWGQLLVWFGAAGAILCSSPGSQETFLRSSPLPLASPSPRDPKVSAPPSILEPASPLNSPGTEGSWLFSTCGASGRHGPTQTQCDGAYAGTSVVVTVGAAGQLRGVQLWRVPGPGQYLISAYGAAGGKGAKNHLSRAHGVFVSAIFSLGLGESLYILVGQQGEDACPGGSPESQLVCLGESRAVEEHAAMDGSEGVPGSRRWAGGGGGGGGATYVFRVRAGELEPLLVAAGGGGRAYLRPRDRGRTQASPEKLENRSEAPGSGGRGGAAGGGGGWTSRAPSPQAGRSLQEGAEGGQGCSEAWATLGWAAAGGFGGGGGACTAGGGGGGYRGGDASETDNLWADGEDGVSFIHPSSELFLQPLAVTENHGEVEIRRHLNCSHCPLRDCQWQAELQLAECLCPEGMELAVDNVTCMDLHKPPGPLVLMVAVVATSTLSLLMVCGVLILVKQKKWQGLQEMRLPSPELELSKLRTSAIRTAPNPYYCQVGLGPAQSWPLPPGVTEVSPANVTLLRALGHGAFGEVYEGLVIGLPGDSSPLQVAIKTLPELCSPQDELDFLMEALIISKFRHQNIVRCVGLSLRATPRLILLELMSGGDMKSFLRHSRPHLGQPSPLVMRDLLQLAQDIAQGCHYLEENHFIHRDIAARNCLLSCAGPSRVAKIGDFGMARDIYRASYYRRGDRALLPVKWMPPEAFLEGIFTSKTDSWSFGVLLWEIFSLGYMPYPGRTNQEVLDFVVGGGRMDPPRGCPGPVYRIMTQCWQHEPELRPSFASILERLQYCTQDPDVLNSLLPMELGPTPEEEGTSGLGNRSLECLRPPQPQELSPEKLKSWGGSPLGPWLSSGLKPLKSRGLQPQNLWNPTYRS
Mitogen-activated protein kinase kinase kinase 3 (Homo sapiens), sequence (Q99759 whole entry): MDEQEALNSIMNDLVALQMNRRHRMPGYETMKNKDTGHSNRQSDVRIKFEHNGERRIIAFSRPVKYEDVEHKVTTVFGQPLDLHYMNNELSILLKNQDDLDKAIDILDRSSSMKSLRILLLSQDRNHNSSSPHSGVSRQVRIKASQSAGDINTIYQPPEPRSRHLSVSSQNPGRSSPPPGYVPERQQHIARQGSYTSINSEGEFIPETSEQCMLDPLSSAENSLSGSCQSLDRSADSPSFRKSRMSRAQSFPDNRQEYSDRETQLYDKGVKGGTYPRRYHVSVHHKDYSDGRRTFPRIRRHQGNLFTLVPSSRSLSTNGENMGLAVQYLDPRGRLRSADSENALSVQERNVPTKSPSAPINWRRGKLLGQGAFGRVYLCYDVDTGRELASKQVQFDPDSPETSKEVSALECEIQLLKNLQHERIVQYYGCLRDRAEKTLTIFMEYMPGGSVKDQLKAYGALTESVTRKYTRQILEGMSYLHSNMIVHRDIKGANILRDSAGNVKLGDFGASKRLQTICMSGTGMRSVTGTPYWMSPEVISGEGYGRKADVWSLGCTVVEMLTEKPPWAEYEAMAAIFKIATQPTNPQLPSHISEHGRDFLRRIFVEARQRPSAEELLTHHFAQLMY
Muscarinic acetylcholine receptor M3 (Homo sapiens), sequence (P20309 whole entry, looked up): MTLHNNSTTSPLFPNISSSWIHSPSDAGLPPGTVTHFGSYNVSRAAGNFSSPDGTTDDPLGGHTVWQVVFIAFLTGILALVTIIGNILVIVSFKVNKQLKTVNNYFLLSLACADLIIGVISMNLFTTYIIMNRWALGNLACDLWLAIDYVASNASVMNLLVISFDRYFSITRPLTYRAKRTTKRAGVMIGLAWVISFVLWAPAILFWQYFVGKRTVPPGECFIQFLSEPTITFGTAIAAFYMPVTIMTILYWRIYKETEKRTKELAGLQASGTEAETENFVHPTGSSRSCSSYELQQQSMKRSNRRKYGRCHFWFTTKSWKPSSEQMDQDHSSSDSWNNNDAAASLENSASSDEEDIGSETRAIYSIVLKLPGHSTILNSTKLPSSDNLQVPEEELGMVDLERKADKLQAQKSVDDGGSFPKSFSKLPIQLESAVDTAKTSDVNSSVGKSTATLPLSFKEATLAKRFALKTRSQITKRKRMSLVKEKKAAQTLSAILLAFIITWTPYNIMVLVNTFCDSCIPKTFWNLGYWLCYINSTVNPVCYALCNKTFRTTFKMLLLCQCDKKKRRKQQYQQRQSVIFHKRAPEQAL
Neuropeptide Y receptor type 2 (Homo sapiens), sequence (P49146 whole entry): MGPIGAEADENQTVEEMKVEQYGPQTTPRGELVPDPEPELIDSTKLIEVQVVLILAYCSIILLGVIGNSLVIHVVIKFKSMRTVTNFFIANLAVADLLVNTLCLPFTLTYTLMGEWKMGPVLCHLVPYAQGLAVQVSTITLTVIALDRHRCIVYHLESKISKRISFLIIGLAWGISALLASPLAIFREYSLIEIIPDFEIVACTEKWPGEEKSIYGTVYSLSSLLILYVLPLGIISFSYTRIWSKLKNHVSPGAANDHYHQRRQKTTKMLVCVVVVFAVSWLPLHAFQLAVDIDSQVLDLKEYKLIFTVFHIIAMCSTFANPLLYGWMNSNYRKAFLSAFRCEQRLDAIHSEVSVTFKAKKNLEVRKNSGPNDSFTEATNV
B1 bradykinin receptor (Homo sapiens), sequence (P46663 whole entry): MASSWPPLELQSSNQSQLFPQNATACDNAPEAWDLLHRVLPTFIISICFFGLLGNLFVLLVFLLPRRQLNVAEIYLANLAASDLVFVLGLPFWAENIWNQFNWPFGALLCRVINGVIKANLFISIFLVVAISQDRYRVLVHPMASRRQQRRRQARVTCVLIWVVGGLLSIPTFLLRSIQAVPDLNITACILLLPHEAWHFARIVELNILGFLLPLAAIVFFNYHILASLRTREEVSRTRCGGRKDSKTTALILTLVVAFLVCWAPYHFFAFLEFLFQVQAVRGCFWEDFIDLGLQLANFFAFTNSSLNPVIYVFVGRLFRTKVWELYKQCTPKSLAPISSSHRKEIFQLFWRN
Melatonin receptor type 1A (Homo sapiens), sequence (P48039 whole entry): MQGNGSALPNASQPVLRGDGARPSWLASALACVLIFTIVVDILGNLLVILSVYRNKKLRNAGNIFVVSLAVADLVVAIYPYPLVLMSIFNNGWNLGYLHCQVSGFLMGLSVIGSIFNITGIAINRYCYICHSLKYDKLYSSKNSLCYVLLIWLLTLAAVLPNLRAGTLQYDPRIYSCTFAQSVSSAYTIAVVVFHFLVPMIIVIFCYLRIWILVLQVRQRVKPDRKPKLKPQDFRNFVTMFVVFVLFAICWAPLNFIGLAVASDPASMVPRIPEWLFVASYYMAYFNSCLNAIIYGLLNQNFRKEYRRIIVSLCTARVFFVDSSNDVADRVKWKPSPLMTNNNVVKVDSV
Mu-type opioid receptor (Homo sapiens), sequence (P35372 whole entry): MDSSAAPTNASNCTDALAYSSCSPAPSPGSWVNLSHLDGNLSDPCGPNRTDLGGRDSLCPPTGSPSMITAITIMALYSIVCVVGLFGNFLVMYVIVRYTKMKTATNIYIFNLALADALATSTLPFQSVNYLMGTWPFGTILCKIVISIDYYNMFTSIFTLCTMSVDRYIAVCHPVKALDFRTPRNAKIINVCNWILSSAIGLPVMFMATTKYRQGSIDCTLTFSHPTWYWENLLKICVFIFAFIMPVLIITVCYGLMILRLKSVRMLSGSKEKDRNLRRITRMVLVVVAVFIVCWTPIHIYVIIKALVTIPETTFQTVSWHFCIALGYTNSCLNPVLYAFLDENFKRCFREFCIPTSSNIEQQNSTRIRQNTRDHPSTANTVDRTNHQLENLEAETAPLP
Adenosine receptor A1 (Homo sapiens), sequence (P30542 whole entry): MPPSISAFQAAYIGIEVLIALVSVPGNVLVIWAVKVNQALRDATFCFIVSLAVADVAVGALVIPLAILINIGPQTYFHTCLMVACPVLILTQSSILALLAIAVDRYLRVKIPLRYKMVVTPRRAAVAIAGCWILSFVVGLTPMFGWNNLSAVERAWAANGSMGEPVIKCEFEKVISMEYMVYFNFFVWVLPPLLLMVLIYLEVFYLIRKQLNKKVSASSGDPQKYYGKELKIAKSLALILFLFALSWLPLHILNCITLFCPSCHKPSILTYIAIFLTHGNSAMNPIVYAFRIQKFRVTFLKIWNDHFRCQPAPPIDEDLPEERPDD

`CS(=O)(=O)NCC[C@H](NC(=O)c1cncc2c1cnn2-c1ccc(F)cc1)c1ccnc(S(C)(=O)=O)c1` [BI 9307]: the inhibition in series [1] is -4.31%; in [2] it was 15.8%; in series [3], 17.4%. Also, the residual activity in series [4], in series [5] and in series [6] was 100% throughout.

In the case of `CS(=O)(=O)c1cc(C2(NC(=O)c3cncc4c3cnn4-c3ccc(F)cc3)CC2)ccn1` [BI 639667], the residual activity in [7] was 79%; in [8] it was 88%; in [9] it was 99%; in series [10], 82%; in series [11], 93%; in series [12], 95%. Also, the residual activity in [13] was 86%; in series [15] it was 91%; in series [16], 87%; in [17] it was 99%; in [18], 28%; in series [19], 98%. Further, the residual activity in [20] was 90%; in [21] it was 100%; in [22] (Compound concentration 0.03 uM), 72%; in series [22] (Compound concentration 0.1 uM), 52%; in series [22] (Compound concentration 0.3 uM), 33%; in series [22] (Compound concentration 1.0 uM) it was 17%. The residual activity in [22] (Compound concentration 3.0 uM) is 7.5%; in series [22] (Compound concentration 10.0 uM) it was 3%; in series [24], 93%; in [25], 93%; in series [26], 91%; in series [27] it was 100%. Further, the residual activity in series [28] is 90%; in [29], 89%; in series [31], 81%; in series [32], 93%; in series [33] it was 79%. Further, the inhibition in series [14] was 22%. The Ki in series [23] stood at 1880 nM. In addition, in [30], the activity at 10 µM is recorded as 58% (not active).

In general, inhibition refers to the relative decrease from the control value, in per cent. For orientation: Ki means a dissociation constant, usually derived from enzyme kinetics or from competition with a known ligand.
